Active and inactive are the calls of the source. No cut-off for these calls is given here.
Key:
[1] = molecular target: Mitogen-activated protein kinase 10 (Homo sapiens, UniProt P53779); assay: Inhibition of recombinant human full-length JNK3 at 10 uM using ATF2 as substrate measured after 40 mins in presence of [gamma33P]ATP by scintillation counting analysis relative to control
[2] = molecular target: Mitogen-activated protein kinase 8 (Homo sapiens, UniProt P45983); assay: Inhibition of human JNK1alpha1 using ATF2 as substrate measured after 40 mins in presence of [gamma33P]ATP by scintillation counting analysis
SH-SY5Y = assay: Effect on cell proliferation in human SH-SY5Y cells at 1 to 10 uM measured after 1 hr by MTT assay; type: ADME, cell-based
[3] = Toxicity in APPswe/PS1dE9 double mutant-transgenic mouse assessed as change in body weight at 15 to 30 mg/kg, ip administered once daily for 12 weeks and measured every week during compound dosing; type: organism-based; settings: in vivo, 2016 h
Mus musculus [4] = assay: Improvement in spatial memory impairment in APPswe/PS1dE9 double mutant-transgenic mouse model assessed as decrease in exploration distance at 15 to 30 mg/kg, ip administered once daily for 12 weeks measured 24 hrs after training trial by morris water maze test; type: functional, organism-based
[5] = Toxicity in APPswe/PS1dE9 double mutant-transgenic mouse model assessed as effect on swimming speed at 15 to 30 mg/kg, ip administered once daily for 12 weeks measured 48 hrs after training trial by morris water maze test; type: organism-based; settings: in vivo
[6] = Toxicity in APPswe/PS1dE9 double mutant-transgenic mouse model assessed as effect on time to reach target quadrant at 15 to 30 mg/kg, ip administered once daily for 12 weeks measured 48 hrs after training trial by morris water maze test; type: organism-based; settings: in vivo
Mus musculus [7] = assay: Improvement in spatial memory impairment in APPswe/PS1dE9 double mutant-transgenic mouse model assessed as increase in retention latency time at 15 to 30 mg/kg, ip administered once daily for 12 weeks measured post-last dose by step-through passive avoidance test; type: functional, organism-based
Mus musculus [8] = assay: Improvement in spatial memory impairment in ip dosed APPswe/PS1dE9 double mutant-transgenic mouse model assessed as decrease in number of diffused plaque in cortex administered once daily for 12 weeks measured post-last dose by thioflavin S staining-based fluorescence microscopic analysis; type: functional, organism-based
Mus musculus [9] = assay: Improvement in spatial memory impairment in ip dosed APPswe/PS1dE9 double mutant-transgenic mouse model assessed as decrease in number of fibrillar plaque in cortex administered once daily for 12 weeks measured post-last dose by thioflavin S staining-based fluorescence microscopic analysis; type: functional, organism-based
Mus musculus [10] = assay: Improvement in spatial memory impairment in ip dosed APPswe/PS1dE9 double mutant-transgenic mouse model assessed as decrease in number of diffused plaque in hippocampus administered once daily for 12 weeks measured post-last dose by thioflavin S staining-based fluorescence microscopic analysis; type: functional, organism-based
Mus musculus [11] = assay: Improvement in spatial memory impairment in ip dosed APPswe/PS1dE9 double mutant-transgenic mouse model assessed as decrease in number of fibrillar plaque in hippocampus administered once daily for 12 weeks measured post-last dose by thioflavin S staining-based fluorescence microscopic analysis; type: functional, organism-based
Mus musculus [12] = assay: In vivo inhibition of […] phosphorylation in cortex of APPswe/PS1dE9 double mutant-transgenic mouse model at 30 mg/kg, ip administered once daily for 12 weeks measured post-last dose by Western blot analysis; type: functional, organism-based
Mus musculus [13] = assay: In vivo inhibition of JNK in APPswe/PS1dE9 double mutant-transgenic mouse model assessed as reduction in Tau phosphorylation at Thr205 residue in cortex at 30 mg/kg, ip administered once daily for 12 weeks measured post-last dose by Western blot analysis; type: functional, organism-based
Mus musculus [14] = assay: In vivo inhibition of JNK in APPswe/PS1dE9 double mutant-transgenic mouse model assessed as reduction in APP phosphorylation at Thr668 residue in hippocampus at 30 mg/kg, ip administered once daily for 12 weeks measured post-last dose by Western blot analysis; type: functional, organism-based
[15] = Primary phase half life in APPswe/PS1dE9 double mutant-transgenic mouse at 3 mg/kg, iv administered as single dose by LC-MS/MS analysis; type: ADME, organism-based; settings: in vivo, read-out: alphat1/2 (converted)
[16] = Terminal half life in APPswe/PS1dE9 double mutant-transgenic mouse at 3 mg/kg, iv administered as single dose by LC-MS/MS analysis; type: ADME, organism-based; settings: in vivo, read-out: beta t1/2 (converted)
[17] = AUC in APPswe/PS1dE9 double mutant-transgenic mouse at 3 mg/kg, iv administered as single dose by LC-MS/MS analysis; type: ADME, organism-based; settings: in vivo
[18] = Primary phase half life in APPswe/PS1dE9 double mutant-transgenic mouse at 30 mg/kg, ip administered as single dose by LC-MS/MS analysis; type: ADME, organism-based; settings: in vivo, read-out: alphat1/2 (converted)
[19] = Terminal half life in APPswe/PS1dE9 double mutant-transgenic mouse at 30 mg/kg, ip administered as single dose by LC-MS/MS analysis; type: ADME, organism-based; settings: in vivo, read-out: beta t1/2 (converted)
[20] = Tmax in APPswe/PS1dE9 double mutant-transgenic mouse at 30 mg/kg, ip administered as single dose by LC-MS/MS analysis; type: ADME, organism-based; settings: in vivo
[21] = Cmax in APPswe/PS1dE9 double mutant-transgenic mouse at 30 mg/kg, ip administered as single dose by LC-MS/MS analysis; type: ADME, organism-based; design: dose 30 mg/kg, route intraperitoneal; settings: in vivo
[22] = Mean residence time in APPswe/PS1dE9 double mutant-transgenic mouse at 30 mg/kg, ip administered as single dose by LC-MS/MS analysis; type: ADME, organism-based; settings: in vivo
[23] = Bioavailability in APPswe/PS1dE9 double mutant-transgenic mouse at 30 mg/kg, ip administered as single dose by LC-MS/MS analysis; type: ADME, organism-based; settings: in vivo
[24] = Plasma concentration in APPswe/PS1dE9 double mutant-transgenic mouse at 30 mg/kg, ip administered as single dose measured after 24 hrs by LC-MS/MS analysis; type: ADME, organism-based
[25] = Plasma concentration in APPswe/PS1dE9 double mutant-transgenic mouse at 30 mg/kg, ip administered as single dose measured after 0.5 hrs by LC-MS/MS analysis; type: ADME, organism-based
[26] = Plasma concentration in APPswe/PS1dE9 double mutant-transgenic mouse at 30 mg/kg, ip administered as single dose measured after 2 hrs by LC-MS/MS analysis; type: ADME, organism-based
[27] = Drug level in APPswe/PS1dE9 double mutant-transgenic mouse brain at 30 mg/kg, ip administered as single dose measured after 0.5 hrs by LC-MS/MS analysis; type: ADME, organism-based; settings: read-out: Drug uptake
[28] = Drug level in APPswe/PS1dE9 double mutant-transgenic mouse brain at 30 mg/kg, ip administered as single dose measured after 2 hrs by LC-MS/MS analysis; type: ADME, organism-based; settings: read-out: Drug uptake
[29] = Ratio of drug level in APPswe/PS1dE9 double mutant-transgenic mouse brain to plasma at 30 mg/kg, ip administered as single dose measured after 2 hrs by LC-MS/MS analysis; type: ADME, organism-based; settings: read-out: BPR
[30] = Ratio of drug level in APPswe/PS1dE9 double mutant-transgenic mouse brain to plasma at 30 mg/kg, ip administered as single dose measured after 8 hrs by LC-MS/MS analysis; type: ADME, organism-based; settings: read-out: BPR
Mus musculus [31] = species: Mus musculus; settings: 15 to 30 mg/kg
Description: In vivo inhibition of JNK in APPswe/PS1dE9 double mutant-transgenic mouse model assessed as increase in transformation of sAPPbeta to sAPPalpha by measuring reduction in sAPPbeta level at 15 to 30 mg/kg, ip administered once daily for 12 weeks measured post-last dose by Western blot analysis

Chain of Mitogen-activated protein kinase 10 (P53779 whole entry): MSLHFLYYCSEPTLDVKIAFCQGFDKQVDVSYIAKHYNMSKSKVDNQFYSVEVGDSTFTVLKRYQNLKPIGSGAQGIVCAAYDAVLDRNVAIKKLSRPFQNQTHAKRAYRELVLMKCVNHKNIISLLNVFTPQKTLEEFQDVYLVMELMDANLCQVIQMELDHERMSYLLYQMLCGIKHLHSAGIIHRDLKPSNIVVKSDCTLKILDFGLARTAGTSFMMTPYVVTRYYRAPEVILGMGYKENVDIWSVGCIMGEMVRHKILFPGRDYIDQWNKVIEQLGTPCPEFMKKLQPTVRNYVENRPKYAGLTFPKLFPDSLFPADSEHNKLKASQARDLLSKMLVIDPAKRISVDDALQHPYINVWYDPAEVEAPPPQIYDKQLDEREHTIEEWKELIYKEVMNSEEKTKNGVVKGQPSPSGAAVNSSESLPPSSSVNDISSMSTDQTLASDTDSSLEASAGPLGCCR
Chain of Mitogen-activated protein kinase 8 (P45983 whole entry): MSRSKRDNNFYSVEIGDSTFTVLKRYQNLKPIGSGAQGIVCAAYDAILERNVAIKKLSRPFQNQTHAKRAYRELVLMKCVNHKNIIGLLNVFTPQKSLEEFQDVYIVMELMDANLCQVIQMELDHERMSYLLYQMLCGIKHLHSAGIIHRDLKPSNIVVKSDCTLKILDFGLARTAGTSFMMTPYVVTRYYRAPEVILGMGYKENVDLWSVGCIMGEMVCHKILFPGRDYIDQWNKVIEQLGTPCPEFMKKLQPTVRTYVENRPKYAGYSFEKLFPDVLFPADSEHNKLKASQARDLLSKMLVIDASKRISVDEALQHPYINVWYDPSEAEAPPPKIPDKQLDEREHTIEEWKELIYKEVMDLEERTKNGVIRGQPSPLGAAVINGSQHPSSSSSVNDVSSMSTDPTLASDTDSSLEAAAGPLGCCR

- inhibition [1]: 99%
- IC50 [2]: > 100 µM
- half-life [15]: 0.35 h
- half-life [16]: 8.83 h
- AUC [17]: 2120 ng·h/mL
- half-life [18]: 0.34 h
- half-life [19]: 16.1 h
- Tmax [20]: 0.4 h
- Cmax [21]: 19200 ng/mL
- MRT [22]: 2.78 h
- bioavailability [23]: 90.5%
- concentration at 24 h [24]: 41 ng/mL
- concentration at 0.5 h [25]: 20600 ng/mL
- concentration at 2 h [26]: 1200 ng/mL
- concentration at 0.5 h [27]: 51.4 ng/g
- concentration at 2 h [28]: 158 ng/g
- Kp at 2 h [29]: 0.135
- Kp at 8 h [30]: 0.4
SMILES: O=C1N/C(=N/c2ccccc2Cl)S/C1=C1\C(=O)Nc2ccc(F)cc21
- Activity (SH-SY5Y): Non-Toxic
- Activity [3]: Non-Toxic
- Activity (Mus musculus [4]): Active
- Activity [5]: Non-Toxic
- Activity [6]: Non-Toxic
- Activity (Mus musculus [7]): Active
- Activity (Mus musculus [8]): Dose-dependent effect
- Activity (Mus musculus [9]): Dose-dependent effect
- Activity (Mus musculus [10]): Dose-dependent effect
- Activity (Mus musculus [11]): Dose-dependent effect
- inhibition (Mus musculus [12]): Active
- inhibition (Mus musculus [13]): Active
- inhibition (Mus musculus [14]): Active
- inhibition (Mus musculus [31]): Active

From ChEMBL document CHEMBL4359842 (J Med Chem, 2019)
